According to ChEMBL document CHEMBL1137232 (J Med Chem, 2004):

Each molecule was assayed against Norepinephrine transporter (Rattus norvegicus, UniProt Q9WTR4) (assay: Inhibition of high affinity uptake by the norepinephrine transporter from rat synaptosomal nerve endings by using [3H]NE as radioligand).
Norepinephrine transporter, sequence (Q9WTR4 whole entry): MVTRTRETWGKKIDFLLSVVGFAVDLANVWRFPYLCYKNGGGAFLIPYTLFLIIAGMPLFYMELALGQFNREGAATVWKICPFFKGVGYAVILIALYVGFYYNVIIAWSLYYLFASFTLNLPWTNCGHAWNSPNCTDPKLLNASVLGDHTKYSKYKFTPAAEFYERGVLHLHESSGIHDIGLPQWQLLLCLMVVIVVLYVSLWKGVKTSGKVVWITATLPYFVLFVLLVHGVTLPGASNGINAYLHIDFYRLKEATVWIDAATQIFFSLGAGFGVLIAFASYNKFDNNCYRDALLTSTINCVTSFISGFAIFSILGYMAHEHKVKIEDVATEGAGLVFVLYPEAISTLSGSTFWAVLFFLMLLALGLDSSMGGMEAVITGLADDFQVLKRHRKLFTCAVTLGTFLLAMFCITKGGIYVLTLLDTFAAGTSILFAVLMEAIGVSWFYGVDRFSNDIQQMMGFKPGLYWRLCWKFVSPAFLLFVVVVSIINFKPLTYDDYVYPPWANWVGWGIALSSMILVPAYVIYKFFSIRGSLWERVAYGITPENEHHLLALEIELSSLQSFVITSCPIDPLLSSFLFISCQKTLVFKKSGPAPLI
COC(=O)CSCC1CNCCC1c1ccc(Cl)cc1 (stereo not given) gave a Ki of 0.56 nM. CN1CCC(c2ccc(Cl)cc2)C(C[S+]([O-])CC(=O)N(C)C)C1 (stereo not given) showed a Ki of 1250 nM. With COC(=O)C[S+]([O-])CC1CN(C)CCC1c1ccc(Cl)cc1 (stereo not given) the Ki was 53 nM. COCC[S+]([O-])CC1CN(C)CCC1c1ccc(Cl)cc1 (stereo not given) gave a Ki of 25 nM. CC(C)NC(=O)CSCC1CN(C)CCC1c1ccc(Cl)cc1 (stereo not given) gave a Ki of 0.8 nM. In the case of CN1CCC(c2ccc(Cl)cc2)C(C[S+]([O-])CCOC(=O)c2ccccc2)C1 (stereo not given), the Ki is reported as 18 nM. Work on CN1CCC(c2ccc(Cl)cc2)C(C[S+]([O-])CC(=O)N2CCCCC2)C1 (stereo not given) yielded a Ki of 460 nM. Molecule CN1CCC(c2ccc(Cl)cc2)C(C[S+]([O-])CC(=O)NO)C1 (stereo not given) has a Ki of 12 nM. NC(=O)C[S+]([O-])CC1CNCCC1c1ccc(Cl)cc1 (stereo not given) showed a Ki of 31 nM. CN1CCC(c2ccc(Cl)cc2)C(CSCC(=O)N2CCCCC2)C1 (stereo not given) showed a Ki of 0.68 nM. CNC(=O)C[S+]([O-])CC1CN(C)CCC1c1ccc(Cl)cc1 (stereo not given) was tested, and the Ki was 86 nM. Work on COCCSCC1CN(C)CCC1c1ccc(Cl)cc1 (stereo not given) yielded a Ki of 6 nM. CC(C)NC(=O)C[S+]([O-])CC1CN(C)CCC1c1ccc(Cl)cc1 (stereo not given) was tested, and the Ki was 20 nM. CNC(=O)CSCC1CN(C)CCC1c1ccc(Cl)cc1 (stereo not given) was tested, and the Ki was 25 nM. CN1CCC(c2ccc(Cl)cc2)C(CSCC(=O)NO)C1 (stereo not given) gave a Ki of 15 nM. In the case of CC(=O)OCC[S+]([O-])CC1CN(C)CCC1c1ccc(Cl)cc1 (stereo not given), the Ki is reported as 29 nM. With CN1CCC(c2ccc(Cl)cc2)C(CSCC(=O)N(C)C)C1 (stereo not given) the Ki was 27 nM. CN1CCC(c2ccc(Cl)cc2)C(CSCC(N)=O)C1 (stereo not given) showed a Ki of 39 nM. NC(=O)CSCC1CNCCC1c1ccc(Cl)cc1 (stereo not given) gave a Ki of 10 nM. Molecule CN1CCC(c2ccc(Cl)cc2)C(CI)C1 (stereo not given) has a Ki of 424 nM. In the case of CC(=O)OCCSCC1CN(C)CCC1c1ccc(Cl)cc1 (stereo not given), the Ki is reported as 3.6 nM. Work on CN1CCC(c2ccc(Cl)cc2)C(C[S+]([O-])CCO)C1 (stereo not given) yielded a Ki of 42 nM. With Cc1noc(CSCC2CN(C)CCC2c2ccc(Cl)cc2)n1 (stereo not given) the Ki was 32 nM. Cc1noc(C[S+]([O-])CC2CN(C)CCC2c2ccc(Cl)cc2)n1 (stereo not given) showed a Ki of 218 nM. COC(=O)CSCC1CN(C)CCC1c1ccc(Cl)cc1 (stereo not given) was tested, and the Ki was 25 nM. With CN1CCC(c2ccc(Cl)cc2)C(CSCCO)C1 (stereo not given) the Ki was 0.94 nM. With CN1CCC(c2ccc(Cl)cc2)C(CSCCOC(=O)c2ccccc2)C1 (stereo not given) the Ki was 4.5 nM. COC(=O)C1CN(C)CCC1c1ccc(Cl)cc1 (stereo not given) gave a Ki of 252 nM.

What follows are molecules tested against Sodium-dependent dopamine transporter (Rattus norvegicus, UniProt P23977) (assay: Inhibition of high affinity uptake by the dopamine transporter from rat synaptosomal nerve endings by using [3H]DA as radioligand).
Sodium-dependent dopamine transporter, sequence (P23977 whole entry): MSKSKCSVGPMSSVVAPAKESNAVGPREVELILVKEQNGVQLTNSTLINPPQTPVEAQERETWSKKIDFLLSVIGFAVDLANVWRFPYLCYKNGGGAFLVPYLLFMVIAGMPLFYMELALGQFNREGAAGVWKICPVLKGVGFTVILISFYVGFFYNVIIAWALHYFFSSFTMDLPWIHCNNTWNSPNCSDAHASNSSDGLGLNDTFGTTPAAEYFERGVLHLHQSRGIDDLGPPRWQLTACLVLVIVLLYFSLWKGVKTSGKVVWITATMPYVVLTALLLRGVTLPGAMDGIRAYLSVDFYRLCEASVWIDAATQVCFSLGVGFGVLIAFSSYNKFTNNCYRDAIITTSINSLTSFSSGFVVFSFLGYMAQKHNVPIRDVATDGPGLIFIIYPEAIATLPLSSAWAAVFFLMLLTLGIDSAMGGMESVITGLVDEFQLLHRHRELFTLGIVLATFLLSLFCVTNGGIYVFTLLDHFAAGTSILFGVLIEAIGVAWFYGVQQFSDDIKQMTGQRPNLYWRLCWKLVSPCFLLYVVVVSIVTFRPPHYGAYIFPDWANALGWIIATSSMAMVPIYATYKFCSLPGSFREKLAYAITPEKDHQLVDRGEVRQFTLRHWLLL
Work on COC(=O)CSCC1CNCCC1c1ccc(Cl)cc1 (stereo not given) yielded a Ki of 51 nM. CN1CCC(c2ccc(Cl)cc2)C(C[S+]([O-])CC(=O)N(C)C)C1 (stereo not given) was tested, and the Ki was 2880 nM. Work on COC(=O)C[S+]([O-])CC1CN(C)CCC1c1ccc(Cl)cc1 (stereo not given) yielded a Ki of 231 nM. In the case of COCC[S+]([O-])CC1CN(C)CCC1c1ccc(Cl)cc1 (stereo not given), the Ki is reported as 15 nM. For CC(C)NC(=O)CSCC1CN(C)CCC1c1ccc(Cl)cc1 (stereo not given), the Ki was 1 nM. Work on CN1CCC(c2ccc(Cl)cc2)C(C[S+]([O-])CCOC(=O)c2ccccc2)C1 (stereo not given) yielded a Ki of 32 nM. For CN1CCC(c2ccc(Cl)cc2)C(C[S+]([O-])CC(=O)N2CCCCC2)C1 (stereo not given), the Ki was 379 nM. CN1CCC(c2ccc(Cl)cc2)C(C[S+]([O-])CC(=O)NO)C1 (stereo not given) showed a Ki of 55 nM. NC(=O)C[S+]([O-])CC1CNCCC1c1ccc(Cl)cc1 (stereo not given) was tested, and the Ki was 108 nM. CN1CCC(c2ccc(Cl)cc2)C(CSCC(=O)N2CCCCC2)C1 (stereo not given) gave a Ki of 83 nM. Molecule CNC(=O)C[S+]([O-])CC1CN(C)CCC1c1ccc(Cl)cc1 (stereo not given) has a Ki of 164 nM. COCCSCC1CN(C)CCC1c1ccc(Cl)cc1 (stereo not given) showed a Ki of 50 nM. CC(C)NC(=O)C[S+]([O-])CC1CN(C)CCC1c1ccc(Cl)cc1 (stereo not given) was tested, and the Ki was 248 nM. Work on CNC(=O)CSCC1CN(C)CCC1c1ccc(Cl)cc1 (stereo not given) yielded a Ki of 13 nM. Work on CN1CCC(c2ccc(Cl)cc2)C(CSCC(=O)NO)C1 (stereo not given) yielded a Ki of 85 nM. With CC(=O)OCC[S+]([O-])CC1CN(C)CCC1c1ccc(Cl)cc1 (stereo not given) the Ki was 9 nM. In the case of CN1CCC(c2ccc(Cl)cc2)C(CSCC(=O)N(C)C)C1 (stereo not given), the Ki is reported as 116 nM. CN1CCC(c2ccc(Cl)cc2)C(CSCC(N)=O)C1 (stereo not given) was tested, and the Ki was 159 nM. NC(=O)CSCC1CNCCC1c1ccc(Cl)cc1 (stereo not given) showed a Ki of 114 nM. CN1CCC(c2ccc(Cl)cc2)C(CI)C1 (stereo not given) was tested, and the Ki was 376 nM. CC(=O)OCCSCC1CN(C)CCC1c1ccc(Cl)cc1 (stereo not given) showed a Ki of 35 nM. CN1CCC(c2ccc(Cl)cc2)C(C[S+]([O-])CCO)C1 (stereo not given) was tested, and the Ki was 12 nM. CN1CCC(c2ccc(Cl)cc2)C(C[S+]([O-])CC(N)=O)C1 (stereo not given) was tested, and the Ki was 209 nM. Cc1noc(CSCC2CN(C)CCC2c2ccc(Cl)cc2)n1 (stereo not given) gave a Ki of 126 nM. Cc1noc(C[S+]([O-])CC2CN(C)CCC2c2ccc(Cl)cc2)n1 (stereo not given) was tested, and the Ki was 1650 nM. Molecule COC(=O)CSCC1CN(C)CCC1c1ccc(Cl)cc1 (stereo not given) has a Ki of 80 nM. CN1CCC(c2ccc(Cl)cc2)C(CSCCO)C1 (stereo not given) showed a Ki of 16 nM. CN1CCC(c2ccc(Cl)cc2)C(CSCCOC(=O)c2ccccc2)C1 (stereo not given) was tested, and the Ki was 68 nM.

Each molecule was assayed against Sodium-dependent serotonin transporter (Rattus norvegicus, UniProt P31652) (assay: Inhibition of high affinity uptake by the serotonin transporter (5-HT) from rat synaptosomal nerve endings by using [3H]5-HT as radioligand).
Sodium-dependent serotonin transporter, sequence (P31652 whole entry): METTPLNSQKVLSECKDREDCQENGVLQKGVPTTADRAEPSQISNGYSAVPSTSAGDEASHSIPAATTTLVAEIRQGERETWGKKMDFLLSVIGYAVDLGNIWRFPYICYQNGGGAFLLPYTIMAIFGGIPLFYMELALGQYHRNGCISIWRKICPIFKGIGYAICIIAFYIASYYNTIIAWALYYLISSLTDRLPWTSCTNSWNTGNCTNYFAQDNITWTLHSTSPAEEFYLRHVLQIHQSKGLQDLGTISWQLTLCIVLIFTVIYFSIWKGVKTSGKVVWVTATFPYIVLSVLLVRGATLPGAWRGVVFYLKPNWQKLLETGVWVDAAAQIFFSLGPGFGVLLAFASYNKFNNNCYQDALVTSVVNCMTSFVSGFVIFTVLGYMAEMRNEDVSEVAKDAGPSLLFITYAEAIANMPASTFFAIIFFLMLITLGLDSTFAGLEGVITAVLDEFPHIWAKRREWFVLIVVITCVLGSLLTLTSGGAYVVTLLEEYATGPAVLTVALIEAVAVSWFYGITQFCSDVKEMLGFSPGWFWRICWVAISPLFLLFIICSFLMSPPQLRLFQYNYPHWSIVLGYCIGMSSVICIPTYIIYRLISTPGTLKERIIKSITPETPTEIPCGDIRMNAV
With COC(=O)CSCC1CNCCC1c1ccc(Cl)cc1 (stereo not given) the Ki was 13 nM. CN1CCC(c2ccc(Cl)cc2)C(C[S+]([O-])CC(=O)N(C)C)C1 (stereo not given) was tested, and the Ki was 924 nM. COC(=O)C[S+]([O-])CC1CN(C)CCC1c1ccc(Cl)cc1 (stereo not given) gave a Ki of 809 nM. Molecule COCC[S+]([O-])CC1CN(C)CCC1c1ccc(Cl)cc1 (stereo not given) has a Ki of 469 nM. In the case of CC(C)NC(=O)CSCC1CN(C)CCC1c1ccc(Cl)cc1 (stereo not given), the Ki is reported as 1.1 nM. In the case of CN1CCC(c2ccc(Cl)cc2)C(C[S+]([O-])CCOC(=O)c2ccccc2)C1 (stereo not given), the Ki is reported as 199 nM. In the case of CN1CCC(c2ccc(Cl)cc2)C(C[S+]([O-])CC(=O)N2CCCCC2)C1 (stereo not given), the Ki is reported as 825 nM. With CN1CCC(c2ccc(Cl)cc2)C(C[S+]([O-])CC(=O)NO)C1 (stereo not given) the Ki was 1800 nM. NC(=O)C[S+]([O-])CC1CNCCC1c1ccc(Cl)cc1 (stereo not given) gave a Ki of 775 nM. CN1CCC(c2ccc(Cl)cc2)C(CSCC(=O)N2CCCCC2)C1 (stereo not given) gave a Ki of 4.5 nM. With CNC(=O)C[S+]([O-])CC1CN(C)CCC1c1ccc(Cl)cc1 (stereo not given) the Ki was 2030 nM. Work on COCCSCC1CN(C)CCC1c1ccc(Cl)cc1 (stereo not given) yielded a Ki of 191 nM. CC(C)NC(=O)C[S+]([O-])CC1CN(C)CCC1c1ccc(Cl)cc1 (stereo not given) showed a Ki of 473 nM. Molecule CNC(=O)CSCC1CN(C)CCC1c1ccc(Cl)cc1 (stereo not given) has a Ki of 110 nM. CN1CCC(c2ccc(Cl)cc2)C(CSCC(=O)NO)C1 (stereo not given) was tested, and the Ki was 227 nM. In the case of CC(=O)OCC[S+]([O-])CC1CN(C)CCC1c1ccc(Cl)cc1 (stereo not given), the Ki is reported as 87 nM. CN1CCC(c2ccc(Cl)cc2)C(CSCC(=O)N(C)C)C1 (stereo not given) showed a Ki of 88 nM. For CN1CCC(c2ccc(Cl)cc2)C(CSCC(N)=O)C1 (stereo not given), the Ki was 557 nM. NC(=O)CSCC1CNCCC1c1ccc(Cl)cc1 (stereo not given) was tested, and the Ki was 170 nM. In the case of CN1CCC(c2ccc(Cl)cc2)C(CI)C1 (stereo not given), the Ki is reported as 238 nM. CC(=O)OCCSCC1CN(C)CCC1c1ccc(Cl)cc1 (stereo not given) was tested, and the Ki was 57 nM. Work on CN1CCC(c2ccc(Cl)cc2)C(C[S+]([O-])CCO)C1 (stereo not given) yielded a Ki of 2180 nM. CN1CCC(c2ccc(Cl)cc2)C(C[S+]([O-])CC(N)=O)C1 (stereo not given) showed a Ki of 5790 nM. For Cc1noc(CSCC2CN(C)CCC2c2ccc(Cl)cc2)n1 (stereo not given), the Ki was 221 nM. Molecule Cc1noc(C[S+]([O-])CC2CN(C)CCC2c2ccc(Cl)cc2)n1 (stereo not given) has a Ki of 1080 nM. Molecule COC(=O)CSCC1CN(C)CCC1c1ccc(Cl)cc1 (stereo not given) has a Ki of 208 nM. CN1CCC(c2ccc(Cl)cc2)C(CSCCO)C1 (stereo not given) showed a Ki of 158 nM. With CN1CCC(c2ccc(Cl)cc2)C(CSCCOC(=O)c2ccccc2)C1 (stereo not given) the Ki was 6.7 nM. COC(=O)C1CN(C)CCC1c1ccc(Cl)cc1 (stereo not given) gave a Ki of 8490 nM.
